Assay results from patent US5710130A, “Antithrombotic agents” (Eli Lilly and Company, priority 1995, dated 1998).
Where a name gives a salt, the structure may show the parent alone.

Legend:
Format in all cases: biochemical
human plasma [1] = test: Human plasma anticoagulation, thrombin time (TT); settings: concentration required to double thrombin time, linear extrapolation
Experimental: (§1) Dog plasma and rat plasma is obtained from conscious mixed-breed hounds (either sex, Hazelton-LRE, Kalamazoo, Mich., U.S.A.) or from anesthetized male Sprague-Dawley rats (Harlan Sprague-Dawley, Inc., Indianapolis, Ind., U.S.A.) by venipuncture into 3.8 percent citrate. Fibrinogen is prepared from in-date ACD human blood as the fraction I-2 according to previous procedures and specifications. […] Human fibrinogen is also purchased as 98 percent pure/plasmin free from American Diagnostica, Greenwich, Conn. Coagulation reagents ACTIN, Thromboplastin, and Human plasma are from Baxter Healthcare Corp., Dade Division, Miami, Fla. Bovine thrombin from Parke-Davis ([…], Mich.) is used for coagulation assays in plasma.
(§2) Coagulation assay procedures are as previously described. […] A CoAScreener coagulation instrument (American LABor, Inc.) is used for all coagulation assay measurements. The prothrombin time (PT) is measured by adding 0.05 mL saline and 0.05 mL Thromboplastin-C reagent to 0.05 mL test plasma. The activated partial thromboplastin time (APTT) is measured by incubation of 0.05 mL test plasma with 0.05 mL Actin reagent for 120 seconds followed by 0.05 mL CaCl2 (0.02M). The thrombin time (TT) is measured by adding 0.05 mL saline and 0.05 mL thrombin (10 NIH units/mL) to 0.05 mL test plasma. The compounds of Formula I are added to human or animal plasma over a wide range of concentrations to determine prolongation effects on the APTT, PT, and TT assays. Linear extrapolations are performed to estimate the concentrations required to double the clotting time for each assay.

Human Thrombin = Human Thrombin (Homo sapiens, UniProt P00734); test: Inhibition of thrombin amidase activity (Kass), chromogenic substrate; settings: mean Kass over a range of concentrations; substrate N-benzoyl-Phe-Val-Arg-p-nitroanilide
human plasma [2] = test: Human plasma anticoagulation, activated partial thromboplastin time (APTT); settings: concentration required to double APTT, linear extrapolation
Experimental: as §1, §2

human plasma [3] = test: Human plasma anticoagulation, prothrombin time (PT); settings: concentration required to double PT, linear extrapolation
Experimental: as §1, §2

Row | Compound | Human Plasma Anticoagulation 2x Clotting time TT (human plasma [1]) | Kass Human Thrombin (Human Thrombin) | Human Plasma Anticoagulation 2x Clotting time APTT (human plasma [2]) | Human Plasma Anticoagulation 2x Clotting time PT (human plasma [3])
1 | Cl.NC(N)=NC/C=C/CNC(=O)[C@@H]1CCCN1C(=O)[C@H](N)Cc1ccccc1 (relative stereo) [Example 8, D-Phe-Pro-NHCH2 -trans-CH=CHCH2 NHC(NH)NH2.HCl] | 130 ng/mL | 5.3 × 10^6 (L/mole) | – | –
2 | CCOC(=O)N[C@H](Cc1ccccc1)C(=O)N1CCC[C@H]1C(=O)NCCCCN=C(N)N.Cl [Example 3, EtOCO-D-Phe-Pro-Agm.HCl] | 590 ng/mL | 2.1 × 10^6 (L/mole) | – | –
3 | Cl.Nc1ccc(CCNC(=O)[C@@H]2CCCN2C(=O)[C@@H](CC2CCCCC2)NCC(=O)O)cn1 [Example 75, HO2 CCH2 -D-Cha-Pro-5-NHCH2 CH2 -2-aminopyridine.HCl] | – | 0.45 × 10^6 (L/mole) | – | –
4 | N=C(N)N1CCC(CNC(=O)[C@@H]2CCCN2C(=O)[C@@H](CC2CCCCC2)NCC(=O)O)CC1 [Example 56, N-(carboxymethyl)-D-cyclohexylalanyl-N-[[1-(aminoiminomethyl)-hexahydropyridin-4-yl-]methyl]-L-prodimamide hydrochloride] | 5 ng/mL | – | 160 ng/mL | 200 ng/mL
5 | Cl.O=C(O)CN[C@H](CC1CCCCC1)C(=O)N1CCC[C@H]1C(=O)NCC1=CCNCC1 [Example 58, HO2 CCH2 -D-Cha-Pro-4-NHCH2 -3,4-dehydro-piperidine.HCl] | 710 ng/mL | 0.60 × 10^6 (L/mole) | – | –
6 | CCS(=O)(=O)N[C@H](CC1CCCCC1)C(=O)N1CCC[C@H]1C(=O)NCc1ccc(CN)cc1 [Example 81, EtSO2 -D-Cha-Pro-4-NHCH2 C6 H4 CH2 NH2.HCl] | 110 ng/mL | – | 1,500 ng/mL | 2,700 ng/mL
7 | CS(=O)(=O)CC(=O)N[C@H](CC1CCCCC1)C(=O)N1CCC[C@H]1C(=O)NCc1ccc(C(=N)N)cc1 [Example 92, (N-methylsulfonylacetyl)-L-cyclohexylalanyl-N-[[4-(aminoiminomethyl)phenyl]methyl]-L-prolinamide hydrochloride] | 8.9 ng/mL | – | 210 ng/mL | 340 ng/mL
8 | CCC(CC)C(=O)N[C@@H](CCS(C)(=O)=O)C(=O)N1CCC[C@H]1C(=O)NCc1ccc(C(=N)N)cc1 [Example 91, (C2 H5)2 CHCO-Met(O2)-Pro-p-NHCH2 C6 H4 C(NH)NH2.HCl] | 63 ng/mL | – | 3,000 ng/mL | 3,500 ng/mL
9 | Cl.Nc1ccc(CCNC(=O)[C@@H]2CCCN2C(=O)[C@H](N)Cc2ccccc2)cc1 [Example 14, D-Phe-Pro-p-NHCH2 CH2 C6 H4 NH2.HCl] | 21,000 ng/mL | 0.021 × 10^6 (L/mole) | – | –
10 | CCS(=O)(=O)N[C@H](Cc1ccccc1)C(=O)N1CCC[C@H]1C(=O)NCCc1ccc(NC(=N)N)cc1 [Example 35, EtSO2 -D-Phe-Pro-p-NHCH2 CH2 C6 H4 NHC(NH)NH2.HCl] | 4,500 ng/mL | – | 50,400 ng/mL | 78,400 ng/mL
11 | Cl.NC[C@H]1CC[C@H](CNC(=O)[C@@H]2CCCN2C(=O)[C@H](N)Cc2ccccc2)CC1 (relative stereo) [Example 12, D-Phe-Pro-NHCH2 -trans-4-(aminomethyl)cyclohexane.HCl] | 1,700 ng/mL | 0.44 × 10^6 (L/mole) | – | –
12 | Cl.O=C(O)CN[C@H](CC1CCCCC1)C(=O)N1CCC[C@H]1C(=O)NCCCC1=CCNCC1 [Example 60, HO2 CCH2 -D-Cha-Pro-4-NHCH2 CH2 CH2 -3,4-dehydro-piperidine.HCl] | 3,200 ng/mL | 0.24 × 10^6 (L/mole) | – | –
13 | N=C(N)c1ccc(CNC(=O)[C@@H]2CCCN2C(=O)[C@@H](CC2CCCCC2)NCC(=O)O)cc1 [Example 48, N-(carboxymethyl)-D-cyclohexylalanyl-N-[[4-(aminoiminomethyl)phenyl]methyl]-L-prolinamide] | 2 ng/mL | – | 33 ng/mL | 59 ng/mL
14 | N=C(N)N1CC=C(CNC(=O)[C@@H]2CCCN2C(=O)[C@@H](CC2CCCCC2)NCC(=O)O)CC1 [Example 70, N-(carboxymethyl)-D-cyclohexylalanyl-N-[[1-(aminoiminomethyl)-1,2,3,6-tetrahydropyridin-4-yl]methyl]-L-prolinamide hydrochloride] | 2 ng/mL | – | 160 ng/mL | 180 ng/mL
15 | N=C(N)c1ccc(CNC(=O)[C@@H]2CCCN2C(=O)[C@H](N)CC2CCCCC2)cc1 [Example 51, D-cyclohexylalanyl-N-[[4-(aminoiminomethyl)phenyl]methyl]-L-prolinamide di-hydrochloride] | 2 ng/mL | – | 48 ng/mL | 110 ng/mL
16 | N=C(N)c1ccc(CNC(=O)[C@@H]2CCCN2C(=O)[C@@H](CCC2CCCCC2)NCC(=O)O)cc1 [Example 88, hydrochloride] | 4 ng/mL | – | 100 ng/mL | 200 ng/mL
17 | NCC1CCC(CNC(=O)[C@@H]2CCCN2C(=O)[C@@H](CC2CCCCC2)NCC(=O)O)CC1 (stereo partly drawn) [Example 79, HO2 CCH2 -D-Cha-Pro-4-NHCH2 C6 H10 CH2 NH2.HCl] | 140 ng/mL | – | 1,700 ng/mL | 2,400 ng/mL
18 | CCS(=O)(=O)N[C@H](Cc1ccccc1)C(=O)N1CCC[C@H]1C(=O)NCc1cccc(NC(=N)N)c1 [Example 36, EtSO2 -D-Phe-Pro-m-NHCH2 C6 H4 NHC(NH)NH2.HCl] | 7,700 ng/mL | – | > 91,000 ng/mL | > 91,000 ng/mL
19 | Cl.NCc1cccc(CNC(=O)[C@@H]2CCCN2C(=O)[C@H](N)Cc2ccccc2)c1 [Example 11, D-Phe-Pro-m-NHCH2 C6 H4 CH2 NH2.HCl] | 8,800 ng/mL | 0.064 × 10^6 (L/mole) | – | –
20 | CCS(=O)(=O)N[C@H](CC1CCCCC1)C(=O)N1CCC[C@H]1C(=O)NCCCCN=C(N)N.Cl [Example 2, EtSO2 -D-Cha-Pro-Agm.HCl] | 170 ng/mL | 4.4 × 10^6 (L/mole) | – | –
21 | Cl.N=C(N)c1ccc(CCCNC(=O)C2CCCN2C(=O)C2NCCC3CCCCC32)cc1 (stereo not drawn) [Example 32, 1-Piq-Pro-p-NHCH2 CH2 CH2 -C6 H4 C(=NH)NH2.2HCl] | 3,100 ng/mL | 0.13 × 10^6 (L/mole) | – | –
22 | CCS(=O)(=O)N[C@H](Cc1ccccc1)C(=O)N1CCC[C@H]1C(=O)NCc1ccc(NC(=N)N)cc1 [Example 34, EtSO2 -D-Phe-Pro-p-NHCH2 C6 H4 NHC(NH)NH2.HCl] | 530 ng/mL | – | 4,900 ng/mL | 5,500 ng/mL
